Measured values: patent US3986862A, “Emulsifiable liquid concentrates containing 4-amino-6-t-butyl-3-(methylthio)-1,2,4-triazin-5-one and 2-chloro-N-(2,6-diethylphenyl)-N-methoxymethylacetamide” (E. I. Du Pont de Nemours and Company, priority 1974, dated 1976)

Assay type: physicochemical
Protocol: The unexpected solvent synergism between alachlor, metribuzin and chlorobenzene is illustrated in the Table below. […] When metribuzin is the only material in chlorobenzene only 4% can be held in solution at -6° C. This is equivalent to about 0.35 lbs. metrubuzin/gallon. Solutions more concentrated than that could not be stored at the commercially important warehousing conditions at or near the conventional freezing temperatures (32° F. or 0° C.). […] These concentrations represent 0.8 lbs. of metribuzin and 3.2 lbs. of alachlor per gallon.
SOLUBILITY OF METRIBUZIN AT LOW TEMPERATURES IN
LASSO* AND/OR CHLOROBENZENE

[1] = metribuzin the only material in chlorobenzene, at -6° C.

## CSc1nnc(C(C)(C)C)c(=O)n1N [Metribuzin, 4-amino-6-t-butyl-3-(methylthio)-1,2,4-triazin-5-one]
4% metribuzin, 0% alachlor, solvent chlorobenzene
  Incipient Crystallization Temperature: -6 °C
[1]
  amount of metribuzin that can be held in solution: 4%
  amount of metribuzin that can be held in solution, equivalent: about 0.35 lbs. metrubuzin/gallon
